Several values for one entry are separate records, joined by “and”; a condition that tells them apart may be missing. Equal entries are not always repeated.
Key:
[1] = system: spread of an active S. flexneri infection; conditions: at concentrations at or below their IC50s in the reporter assay; cited from earlier work
[2] = system: initial S. flexneri invasion; design: method as in PMID 24549153, PMID 20237205; conditions: at concentrations at or below its IC50 in the reporter assay; cited from earlier work
[3] = system: 60 bp pvirB FID DNA probe; assay: Fluorescence intercalator displacement (FID) assay, 60 bp probe; format: binding, Shigella flexneri; conditions: for 60 bp pvirB FID probe %fluorescence: ethidium bromide 45 μM, probe 1.5 μM
Description: (§1) The FID protocol was based on previously published studies and was conducted in triplicate. For the assay, black, half-area, 96-well plates (Corning, Twerksbury, MA) were used. First, 70 μL of ethidium bromide in Tris Buffer (0.1 M Tris HCl, 0.1 M NaCl, pH 8.0) was added to all wells. The concentration of ethidium bromide was contingent upon the length of the DNA probe that was used. For the 60 bp pvirB FID DNA probe, the final ethidium bromide concentration used was 45 μM; whereas, for the 10 bp pvirB (51–60) FID DNA probe, the final ethidium bromide concentration used was 7.5 μM. Next, 10 μL of either pvirB FID DNA probes (10 or 60 bp) in TE/NaCl buffer (see above) or 10 μL of TE/NaCl buffer (background fluorescence control) were added to the appropriate wells of the plate. The final concentrations of the pvirB FID DNA probes were 1.5 μM. Lastly, 20 μL of test compound (either 19615 or Berenil) in 10% DMSO Tris Buffer or 20 μL of 10% DMSO Tris Buffer (100% fluorescence control) were added to the appropriate wells of the plate. The final concentrations of each test compound ranged from 12.5 μM to 100 μM. After the addition of all reagents, the plates were protected from light and allowed to equilibrate for 30 min on an orbital shaker at room temperature. Following equilibration, fluorescence was measured […] using a Biotek Synergy H1 plate reader (Winooski, VT). The average background fluorescence was subtracted from all data generated and %fluorescence was calculated for all wells containing compound via the following formula: %fluorescence=Ftest/F100%^*100 where: Ftest = the average fluorescence value obtained for each test compound and F100% = the average fluorescence value obtained for each 100% fluorescence control.

[4] = system: 10 bp pvirB FID DNA probes; assay: Fluorescence intercalator displacement (FID) assay, 10 bp probes; format: binding, Shigella flexneri; conditions: for 10 bp pvirB 51–60 FID probe %fluorescence: ethidium bromide 7.5 μM, probe 1.5 μM
Description: as §1, with “The final concentrations of each test compound ranged from 12.5 μM to 100 μM.” left out

[5] = system: 60 bp pvirB FID (DNA, duplex) AGAATATTATTCTTTTATCCAATAAAGATAAATTGCATCAATCCAGCTATTAAAATAGTA/TACTATTTTAATAGCTGGATTGATGCAATTTATCTTTATTGGATAAAAGAATAATATTCT; assay: fluorescent intercalator displacement (ethidium bromide); conditions: 0.1 M NaCl; 0.1 M Tris-HCl pH 8.0, room temperature; 45 μM ethidium displaced; 1.5 μM DNA; 100 μM compound
[6] = system: 10 bp pvirB 51-60 FID (DNA, duplex) TAAAATAGTA/TACTATTTTA; assay: as above; conditions: 0.1 M NaCl; 0.1 M Tris-HCl pH 8.0, room temperature; 7.5 μM ethidium displaced; 1.5 μM DNA; 100 μM compound
[7] = system: pvirB 1-10 (DNA, duplex) AGAATATTAT/ATAATATTCT; assay: as above; conditions: 0.1 M NaCl; 0.1 M Tris-HCl pH 8.0; ethidium displaced; 2 μM compound, single concentration
[8] = system: pvirB 11-20 (DNA, duplex) TCTTTTATCC/GGATAAAAGA; assay: as above; conditions: 0.1 M NaCl; 0.1 M Tris-HCl pH 8.0; ethidium displaced; 2 μM compound, single concentration
[9] = system: pvirB 21-30 (DNA, duplex) AATAAAGATA/TATCTTTATT; assay: as above; conditions: 0.1 M NaCl; 0.1 M Tris-HCl pH 8.0; ethidium displaced; 2 μM compound, single concentration
[10] = system: pvirB 31-40 (DNA, duplex) AATTGCATCA/TGATGCAATT; assay: as above; conditions: 0.1 M NaCl; 0.1 M Tris-HCl pH 8.0; ethidium displaced; 2 μM compound, single concentration

## COc1ccc(NC(=O)c2nc(S(C)(=O)=O)ncc2Cl)cc1Cl [compound 144092]
[1]
  Inhibition of the spread of an active S. flexneri infection: approximately 75%
[2]
  Inhibition of initial S. flexneri invasion: approximately 50%

## CC(=O)NCC(=O)O.CC(=O)NCC(=O)O.N=C(N)c1ccc(N=NNc2ccc(C(=N)N)cc2)cc1 [Berenil, reference compound]
[3]; 12.5 to 100 μM, both 60 bp and 10 bp probes
  Displacement of ethidium bromide from the pvirB DNA probes (FID): able to displace ethidium bromide
[3]; compound 12.5 μM
  60 bp pvirB FID probe %fluorescence: 76% ± 2%
[3]; compound 25 μM
  60 bp pvirB FID probe %fluorescence: 67% ± 2%
[3]; compound 50 μM
  60 bp pvirB FID probe %fluorescence: 58% ± 1%
[3]; compound 100 μM
  60 bp pvirB FID probe %fluorescence: 48% ± 2%
[4]; compound 2 μM, preliminary FID screen, 5'-AATAAAGATA-3'
  %fluorescence, 10 bp fragment pvirB 21-30: 81% ± 4%
[4]; compound 2 μM, preliminary FID screen, 5'-AATTGCATCA-3'
  %fluorescence, 10 bp fragment pvirB 31-40: 89% ± 5%
[4]; compound 2 μM, preliminary FID screen, 5'-AGAATATTAT-3'
  %fluorescence, 10 bp fragment pvirB 1-10: 45% ± 2%
[4]; compound 2 μM, preliminary FID screen, 5'-ATCCAGCTAT-3'
  %fluorescence, 10 bp fragment pvirB 41-50: 96% ± 2%
[4]; compound 2 μM, preliminary FID screen, 5'-TAAAATAGTA-3'
  %fluorescence, 10 bp fragment pvirB 51-60: 67% and 67% ± 0%
[4]; compound 2 μM, preliminary FID screen, 5'-TCTTTTATCC-3'
  %fluorescence, 10 bp fragment pvirB 11-20: 66% ± 0%
[4]; compound 12.5 μM
  10 bp pvirB 51–60 FID probe %fluorescence: 52% ± 1%
[4]; compound 25 μM
  10 bp pvirB 51–60 FID probe %fluorescence: 51% ± 2%
[4]; compound 50 μM
  10 bp pvirB 51–60 FID probe %fluorescence: 51% ± 1%
[4]; compound 100 μM
  10 bp pvirB 51–60 FID probe %fluorescence: 46% ± 1%
[5]
  %fluorescence: 48 ± 2%
[6]
  %fluorescence: 46 ± 1%
[7]
  %fluorescence: 45 ± 2%
[8]
  %fluorescence: 66 ± 0%
[9]
  %fluorescence: 81 ± 4%
[10]
  %fluorescence: 89 ± 5%

Source: paper PMC4564171 (PLoS ONE, 2015)
